Experimental data published in ChEMBL document CHEMBL1201862, “PubChem BioAssay data set” (2004).
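Method: 48-hour compound exposure of cells in 96-well plates, five concentrations, linear interpolation of endpoints. Here, GI50 denotes the concentration required for 50% inhibition of growth.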 The source made the active and inactive calls. Cut-off read from the data, not from the text of the source: active = GI50 up to about 1.1 µM and inactive = higher.

Key:
Assay in all cases: inhibition of tumour cell growth, NCI panel, 48 h
U-251 = test system: U-251
MCF7 = test system: MCF7
LOX IMVI = test system: LOX IMVI
NCI-H23 = test system: NCI-H23
HT-29 = test system: HT-29
M14 = test system: M14
HCT-15 = test system: HCT-15
SNB-19 = test system: SNB-19
SR = test system: SR
OVCAR-3 = test system: OVCAR-3
HCT-116 = test system: HCT-116
DU-145 = test system: DU-145
OVCAR-5 = test system: OVCAR-5
SK-MEL-5 = test system: SK-MEL-5
BT-549 = test system: BT-549
HOP-62 = test system: HOP-62
NCI-H522 = test system: NCI-H522
Hs-578T = test system: Hs-578T
TK-10 = test system: TK-10
MDA-MB-231 = test system: MDA-MB-231

Structure (SMILES)	GI50 (U-251)	GI50 (MCF7)	GI50 (LOX IMVI)	GI50 (NCI-H23)	GI50 (HT-29)	GI50 (M14)	GI50 (HCT-15) [µM]	GI50 (SNB-19)	GI50 (SR)	GI50 (OVCAR-3)	GI50 (HCT-116)	GI50 (DU-145)	GI50 (OVCAR-5)	GI50 (SK-MEL-5)	GI50 (BT-549)	GI50 (HOP-62)	GI50 (NCI-H522)	GI50 (Hs-578T)	GI50 (TK-10)	GI50 (MDA-MB-231)
C=CCOC1OC(CO[Si](C)(C)C(C)(C)C)C(OCc2ccccc2)C(OCc2ccccc2)C1OCc1ccccc1 (configuration not stated)	29.2 µM (inactive)	54.3 µM (inactive)	25.9 µM (inactive)	> 100 µM (inactive)	79.1 µM (inactive)	68.1 µM (inactive)	88.3	26.2 µM (inactive)	> 100 µM (inactive)	37.2 µM (inactive)	23 µM (inactive)	39.7 µM (inactive)	> 100 µM (inactive)	29.5 µM (inactive)	65 µM (inactive)	21.7 µM (inactive)	34 µM (inactive)	45.2 µM (inactive)	> 100 µM (inactive)	–
COC(=O)[C@@](C)(COC(=O)C(C)(C)C)NC(=O)OC(C)(C)C	> 100 µM (inactive)	> 100 µM (inactive)	> 100 µM (inactive)	> 100 µM (inactive)	> 100 µM (inactive)	> 100 µM (inactive)	> 100	> 100 µM (inactive)	> 100 µM (inactive)	–	> 100 µM (inactive)	> 100 µM (inactive)	> 100 µM (inactive)	> 100 µM (inactive)	> 100 µM (inactive)	> 100 µM (inactive)	> 100 µM (inactive)	–	> 100 µM (inactive)	> 100 µM (inactive)
CC(C)(C)OC(=O)NC(CS(=O)(=O)O)C(=O)O (configuration not stated)	> 100 µM (inactive)	> 100 µM (inactive)	> 100 µM (inactive)	> 100 µM (inactive)	> 100 µM (inactive)	> 100 µM (inactive)	> 100	> 100 µM (inactive)	> 100 µM (inactive)	> 100 µM (inactive)	> 100 µM (inactive)	> 100 µM (inactive)	> 100 µM (inactive)	> 100 µM (inactive)	> 100 µM (inactive)	> 100 µM (inactive)	> 100 µM (inactive)	–	> 100 µM (inactive)	> 100 µM (inactive)
O=S(=O)(O)c1ccc2cc(/N=N/c3c(O)ccc4ccccc34)ccc2c1	> 100 µM (inactive)	> 100 µM (inactive)	–	> 100 µM (inactive)	> 100 µM (inactive)	> 100 µM (inactive)	> 100	> 100 µM (inactive)	> 100 µM (inactive)	> 100 µM (inactive)	> 100 µM (inactive)	> 100 µM (inactive)	> 100 µM (inactive)	> 100 µM (inactive)	> 100 µM (inactive)	> 100 µM (inactive)	> 100 µM (inactive)	69.2 µM (inactive)	> 100 µM (inactive)	–
CC(=O)O[C@H]1C(=O)N(c2cc3c4ccccc4ccc3c3ccccc23)[C@@H]1c1ccccc1	7.33 µM (inactive)	3.13 µM (inactive)	4.34 µM (inactive)	5.51 µM (inactive)	2.64 µM (inactive)	4.38 µM (inactive)	3.85	6.79 µM (inactive)	1.6 µM (inactive)	1.71 µM (inactive)	3.21 µM (inactive)	14.5 µM (inactive)	15.7 µM (inactive)	3.24 µM (inactive)	–	5.16 µM (inactive)	–	5.16 µM (inactive)	12.8 µM (inactive)	10.9 µM (inactive)
O=C1C(Nc2ccc(S(=O)(=O)Nc3cnc4ccccc4n3)cc2)=C/C(=N\c2ccc(S(=O)(=O)Nc3cnc4ccccc4n3)cc2)c2ccccc21	19.1 µM (inactive)	19.5 µM (inactive)	16.2 µM (inactive)	18.7 µM (inactive)	20.4 µM (inactive)	18.5 µM (inactive)	18.4	15.3 µM (inactive)	31.4 µM (inactive)	19.8 µM (inactive)	18.3 µM (inactive)	16.9 µM (inactive)	16.3 µM (inactive)	17.5 µM (inactive)	–	18.3 µM (inactive)	16.8 µM (inactive)	37.2 µM (inactive)	30.7 µM (inactive)	23.1 µM (inactive)
Cc1ccc(C(C2C(=O)N(C)C(=O)N(C)C2=O)C(F)(F)C(=O)N(C)C)cc1 (configuration not stated)	> 100 µM (inactive)	> 100 µM (inactive)	> 100 µM (inactive)	> 100 µM (inactive)	–	> 100 µM (inactive)	> 100	> 100 µM (inactive)	–	> 100 µM (inactive)	> 100 µM (inactive)	> 100 µM (inactive)	> 100 µM (inactive)	> 100 µM (inactive)	> 100 µM (inactive)	> 100 µM (inactive)	–	–	> 100 µM (inactive)	> 100 µM (inactive)
